≈ marks a conversion by molar mass, not a printed value. Where “and” joins values, the source holds several entries; their conditions need not be identical. Equal values may be shown once. Marks after values point to notes of the source that are not given here.
Key:
[1] = test system: individual Aspergillus spp. (Table 14, species not named); assay: MIC testing (CLSI M38-A2), Table 14; assay type: cell-based; details: Aspergillus sp. of Table 14, caspofungin read as MEC
Candida albicans [2] = assay: MFC determination; assay type: cell-based
C. albicans SC5314 [3] = assay: In vitro activity (MIC) against the infecting strain, Example 18; assay type: cell-based, Candida albicans; details: Candida albicans, read-out: MIC
C. glabrata strains [4] = assay: MFC determination; assay type: cell-based; design: MFC: unit not given beside the values
[5] = test system: individual Aspergillus spp. (Table 13, species not given); assay: MIC testing (CLSI M38-A2), Table 13; assay type: cell-based; details: Aspergillus sp. of Table 13, caspofungin read as MEC
Penicillium strains = assay: MFC determination; assay type: cell-based, Penicillium spp.
[6] = test system: individual Aspergillus spp. (Table 12, species not named); assay: MIC testing (CLSI M38-A2), Table 12; assay type: cell-based; details: Aspergillus sp. of Table 12, caspofungin read as MEC
C. krusei strains [7] = assay: MIC testing (CLSI M27-A3); assay type: cell-based
C. albicans SC5314 [8] = assay: In vitro activity (MFC) against the infecting strain, Example 18; assay type: cell-based, Candida albicans; details: Candida albicans, read-out: MFC
Fusarium strains [9] = assay: MIC testing (CLSI M38-A2), Table 17; assay type: cell-based, Fusarium spp.; details: Fusarium strains (Table 17)
[10] = test system: Fusarium strains (Table 18); assay: MFC determination, Table 18; assay type: cell-based, Fusarium spp.
[11] = test system: Aspergillus fumigatus AF91; assay: Disseminated Aspergillosis in immunocompromised murine model (CD-1 mice): tissue fungal burden; details: 7 days
Candida albicans SC5314 = assay: Disseminated candidiasis in immunocompromised murine model (BALB/c mice): tissue fungal burden; assay type: in vivo; details: 7 days
A. fumigatus AF91 = assay: In vitro activity (MFC) against the infecting strain, Example 17; assay type: cell-based, Aspergillus fumigatus; details: Aspergillus fumigatus, read-out: MFC
Description: Minimum Fungicidal Concentration: MFC determinations were performed according to the modifications previously described by Canton et al., Diagn. Microbiol. Infect. Dis., 45:203-206, 2003, and Ghannoum and Isham, Infectious Diseases in Clinical Practice, 15(4):250-253, 2007.
Specifically, the total contents of each clear well from the MIC assay were subcultured onto potato dextrose agar. To avoid antifungal carryover, the aliquots were allowed to soak into the agar and then were streaked for isolation once dry, thus removing the cells from the drug source. Fungicidal activity is defined as ≥99.9% reduction in the number of colony forming units (CFU)/ml from the starting inoculum count, while fungistatic activity is defined as <99.9% reduction. […] MIC and MFC values are considered to be equivalent if they are within 2 dilutions.

[12] = test system: Blastomyces dermatitidis, Coccidioides immitis, and Histoplasma capsulatum strains; assay type: cell-based; details: dimorphic fungal isolates; in µg/mL
Fusarium strains [13] = assay: MFC determination, Table 17; assay type: cell-based, Fusarium spp.; details: Fusarium strains (Table 17)
C. parapsilosis = assay: MIC testing (CLSI M27-A3); assay type: cell-based; design: MIC: unit not given beside the values
[14] = test system: individual Aspergillus spp. (Table 13, species not given); assay: MFC determination, Table 13; assay type: cell-based; details: Aspergillus sp. of Table 13
[15] = test system: Fusarium strains (Table 18); assay: MIC testing (CLSI M38-A2), Table 18; assay type: cell-based, Fusarium spp.
C. glabrata strains [16] = assay: MIC testing (CLSI M27-A3); assay type: cell-based; design: MIC: unit not given beside the values
Candida albicans [17] = assay: MIC testing (CLSI M27-A3); assay type: cell-based; design: MIC: unit not given beside the values; details: for MIC Range: in µg/mL
[18] = test system: all Aspergillus strains tested; assay: MFC determination, summary; assay type: cell-based
[19] = test system: individual Aspergillus spp. (Table 15, species not named); assay: MIC testing (CLSI M38-A2), Table 15; assay type: cell-based; details: Aspergillus sp. of Table 15, caspofungin read as MEC
Cr. neoformans strains = assay: MFC determination; assay type: cell-based, Cryptococcus neoformans; details: Cr. neoformans
C. krusei strains [20] = assay: MFC determination; assay type: cell-based
[21] = individual C. albicans strain with elevated MICs to non-polyene comparators (Table 22)
[22] = individual C. glabrata strain with elevated MICs to non-polyene comparators (Table 22)
[23] = individual C. krusei strain with elevated MICs to non-polyene comparators (Table 22)
[24] = Experiment II, 0.5 mg/kg i.v. daily
[25] = Experiment II, 1.0 mg/kg i.v. daily

## C[C@@H]1[C@H](O)[C@@H](C)/C=C/C=C/C=C/C=C/C=C/C=C/C=C/[C@H](O[C@@H]2O[C@H](C)[C@@H](O)[C@H](N)[C@@H]2O)C[C@@H]2O[C@](O)(C[C@@H](O)[C@H](O)CC[C@@H](O)C[C@@H](O)C[C@@H](O)CC(=O)O[C@H]1C)C[C@H](O)[C@H]2C [Compound 1A]
[1]; in µg/mL
  MIC Range: 1-2
[1]; inhibits 50% of strains
  MIC50: 2 µg/mL (≈ 2.24 µM)
[1]; inhibits 90% of strains
  MIC90: 2 µg/mL (≈ 2.24 µM)
Candida albicans [2]; Fluconazole-susceptible C. albicans n = 13, in µg/mL
  MFC Range: 0.125-1
Candida albicans [2]; Fluconazole-susceptible C. albicans n = 13, kills 50% of strains
  MFC50: 0.5 µg/mL (≈ 0.559 µM)
Candida albicans [2]; Fluconazole-susceptible C. albicans n = 13, kills 90% of strains
  MFC90: 1 µg/mL (≈ 1.12 µM)
Candida albicans [2]; [21]
  MFC: 1 (5×) and >4 and 2
C. albicans SC5314 [3]
  MIC: 0.5 µg/mL (≈ 0.559 µM)
C. glabrata strains [4]; C. glabrata strains, in µg/mL
  MFC Range: 0.5-2
C. glabrata strains [4]; C. glabrata, kills 50% of strains
  MFC50: 1 µg/mL (≈ 1.12 µM)
C. glabrata strains [4]; C. glabrata, kills 90% of strains
  MFC90: 2 µg/mL (≈ 2.24 µM)
C. glabrata strains [4]; [22]
  MFC: 1 (5×) and 2
[5]; in µg/mL
  MIC Range: 1-2
[5]; inhibits 50% of strains
  MIC50: 1 µg/mL (≈ 1.12 µM)
[5]; inhibits 90% of strains
  MIC90: 2 µg/mL (≈ 2.24 µM)
Penicillium strains; kills 50% of strains
  MFC50: 2 µg/mL (≈ 2.24 µM)
Penicillium strains; kills 90% of strains
  MFC90: 4 µg/mL (≈ 4.47 µM)
[6]; in µg/mL
  MIC Range: 1-4
[6]; inhibits 50% of strains
  MIC50: 2 µg/mL (≈ 2.24 µM)
[6]; inhibits 90% of strains
  MIC90: 2 µg/mL (≈ 2.24 µM)
C. krusei strains [7]; C. krusei strains, in µg/mL
  MIC Range: 0.5-2
C. krusei strains [7]; C. krusei, inhibits 50% of strains
  MIC50: 1 µg/mL (≈ 1.12 µM)
C. krusei strains [7]; C. krusei, inhibits 90% of strains
  MIC90: 2 µg/mL (≈ 2.24 µM)
C. krusei strains [7]; [23]
  MIC: 0.5 µg/mL (≈ 0.559 µM)
C. albicans SC5314 [8]
  MFC: 0.5 µg/mL (≈ 0.559 µM)
Fusarium strains [9]; in µg/mL
  MIC Range: 1-4
Fusarium strains [9]; inhibits 50% of strains
  MIC50: 2 µg/mL (≈ 2.24 µM)
Fusarium strains [9]; inhibits 90% of strains
  MIC90: 4 µg/mL (≈ 4.47 µM)
[10]; kills 50% of strains
  MFC50: 2 µg/mL (≈ 2.24 µM)
[10]; kills 90% of strains
  MFC90: > 4 µg/mL
[11]; Experiment I, 0.5 mg/kg i.v.
  Kidney tissue fungal burden, Mean log CFUs ± the standard deviation: 3.16 ± 0.40 log CFUs
  Lung tissue fungal burden, Mean log CFUs ± the standard deviation: 3.46 ± 0.49 log CFUs
[11]; Experiment I, 1.0 mg/kg i.v.
  Kidney tissue fungal burden, Mean log CFUs ± the standard deviation: 0.51 ± 1.02 log CFUs
  Lung tissue fungal burden, Mean log CFUs ± the standard deviation: 0.55 ± 1.10 log CFUs
[11]; [24]
  Kidney tissue fungal burden, Mean log CFUs ± the standard deviation: 2.93 ± 0.73 log CFUs
  Lung tissue fungal burden, Mean log CFUs ± the standard deviation: 2.75 ± 0.93 log CFUs
[11]; [25]
  Kidney tissue fungal burden, Mean log CFUs ± the standard deviation: 1.16 ± 1.10 log CFUs
  Lung tissue fungal burden, Mean log CFUs ± the standard deviation: 1.17 ± 1.15 log CFUs
Candida albicans SC5314; Experiment I, 0.35 mg/kg i.v.
  Brain tissue fungal burden, Mean log CFUs ± the standard deviation: 2.92 ± 1.21 log CFUs
  Kidney tissue fungal burden, Mean log CFUs ± the standard deviation: 3.16 ± 1.41 log CFUs
Candida albicans SC5314; Experiment I, 0.7 mg/kg i.v.
  Brain tissue fungal burden, Mean log CFUs ± the standard deviation: 3.59 ± 1.20 log CFUs
  Kidney tissue fungal burden, Mean log CFUs ± the standard deviation: 2.66 ± 2.11 log CFUs
Candida albicans SC5314; Experiment II, 0.35 mg/kg i.v.
  Brain tissue fungal burden, Mean log CFUs ± the standard deviation: 3.55 ± 1.26 log CFUs
  Kidney tissue fungal burden, Mean log CFUs ± the standard deviation: 3.53 ± 0.63 log CFUs
Candida albicans SC5314; Experiment II, 0.7 mg/kg i.v.
  Brain tissue fungal burden, Mean log CFUs ± the standard deviation: 2.97 ± 2.04 log CFUs
  Kidney tissue fungal burden, Mean log CFUs ± the standard deviation: 2.99 ± 1.05^a,b log CFUs
A. fumigatus AF91
  MFC: 2 µg/mL (≈ 2.24 µM)
[12]
  MIC Range: <0.03-0.25
Fusarium strains [13]; in µg/mL
  MFC Range: 1-4
Fusarium strains [13]; kills 50% of strains
  MFC50: 2 µg/mL (≈ 2.24 µM)
Fusarium strains [13]; kills 90% of strains
  MFC90: > 4 µg/mL
C. parapsilosis; C. parapsilosis strains, in µg/mL
  MIC Range: 0.25-2
C. parapsilosis; C. parapsilosis, inhibits 50% of strains
  MIC50: 0.25 µg/mL (≈ 0.28 µM)
C. parapsilosis; C. parapsilosis, inhibits 90% of strains
  MIC90: 2 µg/mL (≈ 2.24 µM)
C. parapsilosis; individual C. parapsilosis strain with elevated MICs to non-polyene comparators (Table 22)
  MIC: 0.5 (2×) and 1
[14]; kills 50% of strains
  MFC50: 2 µg/mL (≈ 2.24 µM)
[14]; kills 90% of strains
  MFC90: > 4 µg/mL
[15]; in µg/mL
  MIC Range: 1-4
[15]; inhibits 50% of strains
  MIC50: 2 µg/mL (≈ 2.24 µM)
[15]; inhibits 90% of strains
  MIC90: 4 µg/mL (≈ 4.47 µM)
C. glabrata strains [16]; C. glabrata strains, in µg/mL
  MIC Range: 0.25-2
C. glabrata strains [16]; C. glabrata, inhibits 50% of strains
  MIC50: 1 µg/mL (≈ 1.12 µM)
C. glabrata strains [16]; C. glabrata, inhibits 90% of strains
  MIC90: 2 µg/mL (≈ 2.24 µM)
C. glabrata strains [16]; [22]
  MIC: 1 (5×) and 2
Candida albicans [17]; Fluconazole-resistant C. albicans n = 7
  MIC Range: 1-2
Candida albicans [17]; Fluconazole-susceptible C. albicans n = 13
  MIC Range: 0.125-1
Candida albicans [17]; Fluconazole-susceptible C. albicans n = 13, inhibits 50% of strains
  MIC50: 0.5 µg/mL (≈ 0.559 µM)
Candida albicans [17]; Fluconazole-susceptible C. albicans n = 13, inhibits 90% of strains
  MIC90: 1 µg/mL (≈ 1.12 µM)
Candida albicans [17]; [21]
  MIC: 1 (6×) and 2
[18]; kills 50% of strains
  MFC50: 4 µg/mL (≈ 4.47 µM)
[18]; kills 90% of strains
  MFC90: > 4 µg/mL
[19]; in µg/mL
  MIC Range: 0.5-4
[19]; inhibits 50% of strains
  MIC50: 2 µg/mL (≈ 2.24 µM)
[19]; inhibits 90% of strains
  MIC90: 4 µg/mL (≈ 4.47 µM)
Cr. neoformans strains; kills 50% of strains
  MFC50: 1 µg/mL (≈ 1.12 µM)
Cr. neoformans strains; kills 90% of strains
  MFC90: > 4 µg/mL
C. krusei strains [20]; C. krusei strains, in µg/mL
  MFC Range: 0.5-2
C. krusei strains [20]; C. krusei, kills 50% of strains
  MFC50: 1 µg/mL (≈ 1.12 µM)
C. krusei strains [20]; C. krusei, kills 90% of strains
  MFC90: 2 µg/mL (≈ 2.24 µM)
C. krusei strains [20]; [23]
  MFC: 2 µg/mL (≈ 2.24 µM)
